Experimental data: patent US8936941B2, “Compositions useful for cancer detection and treatment, a cancer stem cell model, and methods of production and use thereof” (priority 2008, dated 2015)
“Also recorded” adds a separate entry of the source.

Tests used:
PICSCs [1] = test: LIVE/DEAD Viability/Cytotoxicity Assay on PICSCs; format: cell-based, mouse; settings: 48 hours, single agent
Protocol: This Example is directed to stem cell assays utilizing PICSCs generated in accordance with the presently disclosed and claimed inventive concept(s). The PICSCs were generated as described herein above (i.e., transformation of NIH-3T3 cells with RBM3 gene, followed by transplantation into a nude mouse, then sorting of cells obtained from generated tumors utilizing DCAMKL-1).
The PICSCs were exposed to various compounds/anti-cancer agents, and cell viability assays were then performed using the LIVE/DEAD® Viability/Cytotoxicity Assay from Molecular Probes/Invitrogen (Eugene, Oreg.). The LIVE/DEAD® Viability/Cytotoxicity Assay is an assay that provides a two-color fluorescence cell viability that is based on the simultaneous determination of both live and dead cells.
Briefly, PICSCs cells were grown in a 96 well microtitre plate ([…], Newton, N.C.) to about 40% confluency and treated with anti-cancer agents/compounds for 48 hours. Subsequently, chromogenic substrates Calcein AM and Ethidium homodimer-1 (EthD-1) was added to the cells. Calcein AM is well retained within the live cells, producing uniform green fluorescence in live cells (measured at 515 nM). EthD-1 enters cells with damaged membranes and undergoes an enhancement of fluorescence upon binding to nucleic acids, thereby producing a bright red fluorescence in dead cells (measured at 617 nM). The fluorescence measurement was carried out using a microtitre plate reader (Synergy HT, BIO-TEK, Vinooski, Vt.).
In FIGS. 70-84, the PICSCs were treated with increasing concentrations of various compounds or combinations of compounds for 48 hours, and the data presented therein is represented as a % Dead/Live cells ratio following said treatment. […] Values in each figure are given as average±Standard Error Mean, and asterisks denote statistically significant differences (*p<0.01) compared with control.

PICSCs [2] = test: Growth and survival of PICSCs after drug treatment; format: cell-based, mouse
Protocol: The PICSCs cells were treated with 100 μM drug (suprapharmacological dose) for 48 hours, and their growth and survival were evaluated. […] Moreover, the in vitro testing strategies allows for a mechanistic study of such compounds.

PICSC tumor xenografts = test: PICSC generated isograft tumor growth in mice; format: in vivo; settings: mouse, in vivo
Protocol: To determine whether targeted DCAMKL-1 downregulation and/or Notch inhibition affected […] generated isograft tumor growth, mice were treated with siRNA to DCAMKL-1 or the Notch inhibitor DAPT. After the tumors were allowed to develop (15 days), siRNA was injected a total of 5 times at an interval of 3 days as described earlier.

HCT116 tumor xenografts = test: HCT116 tumor xenograft model in athymic nude mice, intratumoral treatment; format: in vivo; settings: HCT 116-induced tumor xenograft, via induction of apoptosis
Excerpt: Real-time reverse transcription-PCR analyses. Total RNA isolated either from cells or from human colon cancer cell tumor xenograft samples was subjected to reverse transcription with Superscript™ II RNase H—Reverse Transcriptase and random hexanucleotide primers (Invitrogen, Carlsbad, Calif.). The cDNA was subsequently used to perform Real-time PCR by SYBR chemistry (SYBR® Green I; Molecular Probes) for specific transcripts using gene specific primers and Jumpstart Taq DNA polymerase (Sigma-Aldrich, St. Louis, Mo.). […] The changes in mRNA were expressed as fold change relative to control with ±SEM value.
miRNA analysis. Total miRNA was isolated using mirVana™ miRNA isolation kit (Ambion Inc.). Total miRNA isolated either from cells or from human colon cancer cell tumor xenograft samples were subjected to reverse transcription with Superscript™ II RNase H—Reverse Transcriptase and random hexanucleotide primers (Invitrogen, Carlsbad, Calif.). The cDNA was subsequently used to perform Real-time PCR by SYBR chemistry (SYBR® Green I; Molecular Probes) for pri-let-7a transcript using specific primers and Jumpstart Taq DNA polymerase (Sigma-Aldrich, St. Louis, Mo.). […] The changes in pri-miRNA were expressed as fold change relative to control with ±SEM value. Primers used are: […]
Western Blot analysis. HCT116 and SW480 cells were cultured in a 6 well plates to 40% confluency and were transfected with si-DCAMKL-1 or si-Scr for 72 h. Cells or the tumor xenograft samples were lysed and the concentration of protein was determined by BCA protein assay kit (Pierce Biotechnology Inc., Rockford, Ill.). […] The membrane was blocked in 5% non-fat dry milk for 1 h and probed overnight with a rabbit anti-DCAMKL-1 antibody (Abcam Inc., Cambridge, Mass.) or with rabbit anti-c-Myc antibody (Santa Cruz). Subsequently, the membrane was incubated with anti-rabbit or anti-goat IgG horseradish peroxidase-conjugated antibodies (Amersham-Pharmacia) for 1 h at room temperature. The 82 kDa DCAMKL-1 and 49 kDa c-Myc proteins were detected using ECL™ Western Blotting detection reagents (Amersham-Pharmacia). Actin (43 kDa), used as loading control was identified using a goat polyclonal IgG (Santa Cruz Biotechnology Inc., Santa Cruz, Calif.).
Immunohistochemistry. Heat Induced Epitope Retrieval was performed on 4 μm formalin-fixed paraffin-embedded sections utilizing a pressurized Decloaking Chamber (Biocare Medical) in citrate buffer (pH 6.0) at 99° C. for 18 min. (a) Brightfield: Slides were incubated in 3% hydrogen peroxide, then normal serum and BSA at room temperature for 20 min. After incubation with primary antibody [DCAMKL-1 C-terminal (Abcam), anti-c-Myc (Santa Cruz Biotechnologies), L-FABP (Santa Cruz Biotechnologies)], the slides were incubated in peroxidase-conjugated EnVision™+polymer detection kit (DAKO). Slides were developed with Diaminobenzidine (Sigma). (b) Fluorescence: Slides were first incubated in Image-iT FX signal enhancer (Invitrogen), followed by normal serum and BSA at room temperature for 20 min.
Xenograft tumor model. (a) Liposomal preparation: siRNA was administered into the xenografts after incorporation into 1,2-Dioleoyl-sn-Glycero-3-Phosphocholine (DOPC) (Avanti Polar Lipids, Alabaster, Ala.). DOPC and siRNA were mixed in the presence of excess tertiary butanol at a ratio of 1:10 (w/w) (siRNA/DOPC). Tween 20 (Sigma-Aldrich) was added to the mixture at a ratio of 1:19 Tween 20:siRNA/DOPC. The mixture was vortexed and frozen in an acetone/dry ice bath and lyophilized. Before administration, the siRNA preparation was reconstituted in 0.9% sterile saline and injected at a dose of 50 μl (5 μM) per injection. (b) Tumor therapy: Female athymic nude mice (NCr-nu) were purchased from the National Cancer Institute-Frederick Cancer Research and Development Center (Frederick, Md.) and housed in specific pathogen-free conditions.

[3] = system: Pdx1-Cre; LSL-KRAS^G12D; p53^lox/+ mouse model of pancreatic neoplasia; settings: inhibition of Notch signaling; cited from earlier work
HCV subgenomic replicon = test: HCV replication in GS5 cells (Huh7.5 with HCV subgenomic replicon); format: cell-based, hepatitis C virus; settings: disruption of microtubules
Protocol: FIG. 61 illustrates that DCAMKL-1 is required for the HCV replication. A. siRNA against DCAMKL-1 (Si-DCAMKL1, 50 nM and 100 nM) or scrambled siRNA (SCR, 100 nM) were transfected into GS5 cells. Total RNAs were extracted and subjected to real-time quantitative PCR. The levels of HCV and DCAMKL-1 RNAs were considered arbitrary as one unit in untransfected GS5 cells (Cont). Actin mRNA in each sample was used as internal control for PCR. B. Western blot analysis of siRNAs tranfected and untransfected samples as indicated.
Induction of putative stem cell/pluripotency factors by HCV: Normal adult hepatocytes are fully differentiated cells and lack expression of pluripotency factors. However, these cells can be induced to proliferate rapidly after partial hepatectomy and can also be reprogrammed into stem-like cells by forced expression of a cocktail of transcription factors. Thus, the impact of HCV on expression pattern of stem/progenitor cell markers was investigated in GS5 cells, which are derived from hepatoma cell line (Huh7.5) and support constitutive replication of a subgenomic HCV replicon under G418 selection. The replicon expresses HCV nonstructural proteins NS3 through NS5B of the HCV-1a strain and green florescent protein (GFP)-NS5A chimera. Total lysates from parent Huh7.5 and GS5 cells were subjected to Western blot analysis (FIG. 59).
Putative intestinal stem cell marker DCAMKL1 is required for the HCV replication: The eccentric, punctate staining of HCV replication complexes consisting of most of the nonstructural proteins and cellular factors has been a puzzling question. It is known that these replication complexes associate with microtubules in order to replicate the HCV RNA. The DCAMKL1 protein, which binds and polymerizes tubulin into microtubule filaments, is considered as a putative marker for quiescent stem cells in the intestine, and its expression is increased in cancer stem cells. During confocal microscopy, most DCAMKL1 localization was consistently observed in the area containing replication complexes (indicated by NS5A-GFP) and high concentration of microtubules (FIG. 60). The perinuclear co-localization of DCAMKL1 with the NS5A-GFP (indicated by yellow stain) was also observed.

Compound: CCc1c2c(nc3ccc(OC(=O)N4CCC(N5CCCCC5)CC4)cc13)-c1cc3c(c(=O)n1C2)COC(=O)[C@]3(O)CC [CPT-11, Irinotecan]
- PICSC cell death (% Dead/Live cells ratio) (PICSCs [1]): no cell death
- growth and survival of PICSCs (PICSCs [2]; 100 μM drug, 48 hours): no significant effect

Compound: N.N.[Cl][Pt][Cl] [Cisplatin]
- PICSC cell death (% Dead/Live cells ratio) (PICSCs [1]): increasing levels of PICSC cell death

Compound: C[C@H](NC(=O)Cc1cc(F)cc(F)c1)C(=O)N[C@H](C(=O)OC(C)(C)C)c1ccccc1 [DAPT]
- anti-CSC growth properties (PICSC tumor xenografts): potent anti-CSC growth properties
- PICSC cell death (% Dead/Live cells ratio) (PICSCs [1]): increasing levels of PICSC cell death

Compound: O=C1C(=Cc2ccccc2F)CNCC1=Cc1ccccc1F [EF24, 3,5-bis(2-fluorobenzylidene)piperidin-4-one]
- anti-CSC growth properties (PICSC tumor xenografts): potent anti-CSC growth properties
- PICSC cell death (% Dead/Live cells ratio) (PICSCs [1]): increasing levels of PICSC cell death
- tumor xenograft growth (HCT116 tumor xenografts): significantly inhibited
- neurite formation, cell growth and cell death of PICSCs (PICSCs [2]; 1 μM): inhibited neurite formation, suppressed cell growth and induced cell death

Compound: Nc1ccn([C@@H]2O[C@H](CO)[C@@H](O)C2(F)F)c(=O)n1 [Gemcitabine]
- PICSC cell death (% Dead/Live cells ratio) (PICSCs [1]): significant increase in PICSC cell death

Compound: O=S1(=O)N[C@@]2(CN1CC(F)(F)F)[C@@H]1CC[C@H]2Cc2ccc(/C=C/CN3CCC(C(F)(F)F)CC3)cc2C1 [MRK-003]
- tumor development [3]: completely inhibited tumor development; also recorded: completely blocked tumor development

Compound: COc1cc(/C=C/C(=O)CC(=O)/C=C/c2ccc(O)c(OC)c2)ccc1O [curcumin]
- neurite formation, cell growth and cell death of PICSCs (PICSCs [2]; 30 μM): inhibited neurite formation, suppressed cell growth and induced cell death

Compound: OO [hydrogen peroxide]
- PICSC cell death (% Dead/Live cells ratio) (PICSCs [1]): complete cell death

Compound: CC[C@]1(O)C[C@@H]2CN(CCc3c([nH]c4ccccc34)[C@@](C(=O)OC)(c3cc4c(cc3OC)N(C)[C@H]3[C@@](O)(C(=O)OC)[C@H](OC(C)=O)[C@]5(CC)C=CCN6CC[C@]43[C@@H]65)C2)C1 [vinblastin, reference compound]
- HCV replication (HCV subgenomic replicon): inhibition
